39 compounds from ChEMBL document CHEMBL5329158 (RSC Med Chem, 2023) can be followed below.

Each structure is given as a SMILES string.

In the first data set the test system is Leishmania infantum. In words: Antileishmanial activity against Leishmania infantum MHOM/BR/1972/LD amastigotes infected in mouse Peritoneal macrophage cells assessed as inhibition of parasite growth incubated for 96 hrs by light microscopic analysis. It counts as functional, organism-based. Particulars: Leishmania infantum, MHOM/BR/1972/LD, Peritoneal macrophage, 96 h; read-out: IC50; call rule not given here.
`C=CCc1cc(OC)c(OC)c(Oc2ccccc2OC)c1`: the IC50 (commonly the concentration at which inhibition is half-maximal) is more than 50 µM. Still for that read-out and setting: then `C=CCc1cc(OC)c(O)c(Oc2ccc(CN3CCCC3)cc2OC)c1`, with more than 50 µM; and `C=CCc1ccc(Oc2cc(CCC)cc(OC)c2OCc2ccc(OC)cc2)c(OC)c1`, with more than 50 µM; and `C=CCc1ccc(Oc2cc(CC=C)cc(OC)c2OCOC)c(OC)c1`, with more than 50 µM. On the same count and under the same terms, under `C=CCc1ccc(Oc2cc(CC=C)cc(OC)c2OCc2ccc(OC)cc2)c(OC)c1` stands more than 50 µM; under `C=CCc1cc(OC)cc(Oc2ccc(CC=C)cc2OC)c1`, more than 50 µM; under `C=CCc1cc(OC)c(OCc2ccc(OC)cc2)c(Oc2ccc(CN3CCCC3)cc2OC)c1`, more than 50 µM.

As to `CCCc1ccc(Oc2cc(CCC)cc(OC)c2OCc2ccc(OC)cc2)c(OC)c1`, the IC50 is more than 50 µM. The same measure, in the same setting: then `C=CCc1cc(OC)c(O)c(Oc2ccccc2OC)c1`, with more than 50 µM; and `C=CCc1ccc(Oc2cccc(OC)c2O)c(OC)c1`, with more than 50 µM; and `C=CCc1ccc(Oc2cccc(OC)c2OC)c(OC)c1`, with more than 50 µM. Same read-out and setting: then `C=CCc1cc(OC)c(O)c(Oc2ccc(CCC)cc2OC)c1`, with more than 50 µM; and `C=CCc1cc(OC)c(OCc2ccc(OC)cc2)c(Oc2ccc(CCC)cc2OC)c1`, with more than 50 µM. As for `C=CCc1ccc(Oc2cc(CCC)cc(OC)c2O)c(OC)c1`, the IC50 was more than 50 µM.

Consider `C=CCc1cc(OC)c(OC)c(Oc2ccc(CCC)cc2OC)c1`, for which the IC50 is more than 50 µM. Same read-out and setting: then `C=CCc1cc(OC)c(O)c(Oc2ccc(CN3CCOCC3)cc2OC)c1`, with more than 50 µM; and `C=CCc1ccc(Oc2cccc(OC)c2OC(C)=O)c(OC)c1`, with more than 50 µM; and `C=CCc1ccc(Oc2cc(CC=C)cc(OC)c2OCC(=O)N2CCOCC2)c(OC)c1`, with more than 50 µM.

Staying with this data set, now noted: peritoneal macrophage.
Consider `C=CCc1ccc(O)c(Oc2ccc(CC=C)cc2OC)c1`, for which the IC50 entry is “Not Active”. Same read-out and setting: under `C=CCc1ccc(Oc2cccc(OC)c2OCc2ccc(OC)cc2)c(OC)c1` stands “Not Active”; under `C=CCc1ccc(Oc2cc(CC=C)cc(OC)c2O)cc1`, “Not Active”; under `CCCc1ccc(OCc2ccc(OC)cc2)c(Oc2ccc(CN3CCOCC3)cc2OC)c1`, “Not Active”. For `C=CCc1ccc(Oc2cc(CC=C)ccc2OCc2ccc(OC)cc2)c(OC)c1`, the IC50 result is “Not Active”. Still for that read-out and setting: then `C=CCc1ccc(Oc2cc(CC=C)cc(OC)c2OCc2ccc(OC)cc2)cc1`, with “Not Active”.

System in a further data set: not listed separately
In words: Selectivity index, ratio of CC50 for cytotoxicity against mouse NCTC clone 929 cells assessed as inhibition of cell growth to IC50 for antileishmanial activity against Leishmania infantum MHOM/BR/1972/LD amastigotes infected in mouse Peritoneal macrophage cells assessed as inhibition of parasite growth. Format: toxicity, cell-based. The settings on record: read-out: Ratio CC50/IC50.
With `C=CCc1cc(OC)c(OCc2ccc(OC)cc2)c(Oc2ccccc2OC)c1`, the selectivity ratio was more than 8.3.

In the case of `CCCCCCCCCCCCCCCCOP(=O)([O-])OCC[N+](C)(C)C` [MILTEFOSINE], the selectivity ratio amounted to 18.4. The same measure, in the same setting: then `CCCc1cc(OC)c(OCc2ccc(OC)cc2)c(Oc2ccc(CN3CCOCC3)cc2OC)c1`, with 9.7; and `CCCc1ccc(Oc2cc(CN3CCOCC3)cc(OC)c2OCc2ccc(OC)cc2)cc1`, with more than 13.1; and `C=CCc1cc(OC)c(OCc2ccc(OC)cc2)c(Oc2ccc(CN3CCOCC3)cc2OC)c1`, with more than 20.6. Still for that read-out and setting: under `C=CCc1ccc(Oc2cc(CC=C)cc(OC)c2OCC(=O)N2CCCC2)c(OC)c1` stands 2.6; under `C=CCc1ccc(Oc2cc(CC=C)cc(OC)c2OCCN2CCOCC2)c(OC)c1`, 6.6. Still for that read-out and setting: under `COc1ccc(COc2c(OC)cc(CN3CCOCC3)cc2Oc2ccc(CN3CCOCC3)cc2OC)cc1` stands 2.7. On to `CCCc1cc(OC)c(OCc2ccc(OC)cc2)c(Oc2ccc(CN3CCCCC3)cc2OC)c1`, for which the selectivity ratio came out at 3.9. The same measure, in the same setting: then `CCCc1ccc(Oc2cc(CN3CCCCC3)cc(OC)c2OCc2ccc(OC)cc2)cc1`, with 7.6; and `C=CCc1ccc(Oc2cc(CC=C)cc(OC)c2OCCN2CCCC2)c(OC)c1`, with 6; and `CCCc1ccc(Oc2cc(CN3CCOCC3)cc(OC)c2OCc2ccc(OC)cc2)c(OC)c1`, with more than 12.2. Same read-out and setting: under `CCCc1ccc(Oc2cc(CN3CCOCC3)cc(OC)c2OCc2ccc(C(F)(F)F)cc2)c(OC)c1` stands more than 15.1. Take `CCCc1ccc(Oc2cc(CN3CCOCC3)cc(OC)c2OCc2cc(OC)c(OC)c(OC)c2)c(OC)c1`: the selectivity ratio was more than 7.6. The same measure, in the same setting: under `C=CCc1cc(OC)c(OC(C)=O)c(Oc2ccccc2OC)c1` stands more than 6.1.
